Measurements: the NIST ThermoML archive (doi:10.1016/j.tca.2005.11.022)
± gives the expanded uncertainty stated by the source. Blank lines part the entries; values can stand above or below the compound they belong to.

Tests used:
[1] = Solid-liquid equilibrium temperature; conditions: 101.3 kPa, Conductivity measurements
[2] = excess molar enthalpy (molar enthalpy of mixing); xn = mol fraction of the nth substance listed; conditions: 505 K, 101 kPa, Liquid, Calvet calorimetry

- Solid-liquid equilibrium temperature ([1]; Crystal 1): 488 ± 1 K
Compound: O=S(=O)([O-])O.[K+] [hydrogen potassium sulfate]

- Solid-liquid equilibrium temperature ([1]; Crystal): 458 ± 1 K
Compound: O=S(=O)([O-])O.[Na+] [sulfuric acid, monosodium salt]

- excess molar enthalpy ([2]; x2 = 0.1135): -0.043 ± 0.0043 kcal/mol
- excess molar enthalpy ([2]; x2 = 0.2137): -0.1 ± 0.01 kcal/mol
- excess molar enthalpy ([2]; x2 = 0.4029): -0.126 ± 0.0127 kcal/mol
- excess molar enthalpy ([2]; x2 = 0.4978): -0.145 ± 0.0146 kcal/mol
- excess molar enthalpy ([2]; x2 = 0.5883): -0.143 ± 0.0143 kcal/mol
- excess molar enthalpy ([2]; x2 = 0.7186): -0.123 ± 0.0124 kcal/mol
- excess molar enthalpy ([2]; x2 = 0.8521): -0.069 ± 0.00693 kcal/mol
Compound: O=S(=O)([O-])O.[Na+] [sulfuric acid, monosodium salt] + O=S(=O)([O-])O.[K+]
